Laboratory results as given in EP0714404B1, “ANTI-INFLAMMATORY PEPTIDES” (CURATIVE TECHNOLOGIES, INC., priority 1993, dated 1995).
Where two headings read alike, the source gives them in different places. Residues, ends and D or L forms follow the SMILES beside them.

Tested on: Arachidonic Acid Induced Inflammation
Assay type: in vivo, mice
Details: for % Reduction of Ear Swelling / Ear Thickness: sc minipump
Procedure: The anti-inflammatory properties of CT-112 (SEQ. ID NO: 1) were assessed using a standardized assay for anti-inflammatory activity, i.e., the mouse ear model in which arachidonic acid (AA) is used to induce an inflammatory reaction (Young et al., 1984, J. Invest. Dermatol. 82:367-371; Doherty, et al., 1988, J. Invest. Dermatol. 91:298-302).
Female mice (C57BL/6UAF, Charles River Breeding Laboratories, approximately 15-18 g) were obtained and acclimated for 2 weeks prior to use. The animals were approximately 14 weeks old at the start of the study.
To prepare minipumps for implantation, CT-112 (SEQ. ID NO: 1) was dissolved in PBS. The material was loaded into Alzet minipumps set to deliver 0.05 (5 animals), 0.1 (10 animals), 1 (10 animals), or 2.5 (5 animals) mg of CT-112 (SEQ. ID NO: 1) per animal per day. Minipumps for implantation into control animals contained only PBS. As a positive control, one set of 10 mice received 100 mg/kg of phenidone, a potent 5-lipoxygenase inhibitor which acts as an anti-inflammatory agent, 15 min prior to challenge with AA.
For subcutaneous implantation of minipumps, animals were anesthetized with Ketamine/Xylazine. The Ketamine (Aveco Lot #440140) was injected at 80 mg/kg and the Xylazine (Rugby Laboratories Lot #26040-B) at 16 mg/kg and the Alzet pumps were implanted subcutaneously in the dorsothoracic area. Animals were allowed to recover and then housed and given food and water ad libitum for 5 days.
On the sixth day following pump implantation, 0.01 ml of AA was applied to the inner and outer surfaces of the right ear by means of an automatic microliter pipette. One hr following AA application, the mice were sacrificed and ear thickness was measured with a Mitutoyo No. 7300 Gauge Caliper. The left ears were also measured as an internal control.
Mice were implanted with Alzet mini-pumps set to deliver 60 mg/kg/day for either 7, 3, or 1 days. A separate group of 5 mice received 3 intraperitoneal injections of CT-112 (60 mg/kg/injection) at 24, 1 and 0.25 hr prior to AA challenge. CT-112 (SEQ. ID NO: 1) was prepared for injection by dissolving the compound in Dulbecco's PBS to give a final CT-112 (SEQ. ID NO: 1) concentration of 5 mg/ml. The control mice were implanted with Alzet minipumps that delivered PBS for 7 days. The AA challenge was the same as described supra in Example 7.
Administration of CT-112 (SEQ. ID NO: 1) (60 mg/kg/injection) via multiple intraperitoneal injections was performed at the following times prior to AA challenge: • a) 6, 3, 1 and 0.25 hr; • b) 3, 1 and 0.25 hr; or • c) 1 and 0.25 hr.
In addition, the effect of a single administration of CT-112 (SEQ. ID NO: 1) (60 mg/kg) by intraperitoneal injection was performed at either 1 or 3 hr prior to AA challenge. Control mice had Alzet minipumps implanted to deliver PBS for 7 days prior to AA challenge. The AA challenge was the same as described supra in Example 7. The results of the multiple dosing regimens and the 1 hr and 3 hr single dosing regimens were compared to the anti-inflammatory activity of CT-112 (SEQ. ID NO: 1) delivered via Alzet minipump set to deliver 60 mg/kg/day for 7 days using 5 animals per treatment.
In a separate experiment, the effect of multiple intraperitoneal injections of CT-112 (SEQ. ID NO: 1) at either 6, 3, 1 and 0.25 hr, or 16, 3, 1 and 0.25 hr prior to AA challenge was assessed. The results of both multi-dosing regimens were compared to both phenidone (100 mg/kg administered 15 min prior to AA challenge) and CT-112 (SEQ. ID NO: 1) administered via Alzet mini-pump (60 mg/kg/day for 7 days). For this latter study, the number of animals receiving the single injection of CT-112 (SEQ. ID NO: 1) was increased from 5 to 10.
Administration to mice of CT-112 (SEQ. ID NO: 1) (60 mg/kg/injection) via multiple subcutaneous injections prior to AA challenge was performed at: • a) 6, 3, 1 and 0.25 hr; • b) 3, 1 and 0.25 hr; or • c) 1 and 0.25 hr. […]

[1] = 0.05 mg/animal/day, AA on sixth day

For `CC(C)[C@H](NC(=O)[C@H](CCC(N)=O)NC(=O)[C@H](CO)NC(=O)[C@@H](NC(=O)[C@@H](N)[C@@H](C)O)[C@@H](C)O)C(=O)N[C@@H](CCCNC(=N)N)C(=O)N1CCC[C@H]1C(=O)N[C@@H](CCCNC(=N)N)C(=O)O` [CT-112, Thr-Thr-Ser-Gln-Val-Arg-Pro-Arg] (H-TTSQVRPR-OH), the “% Reduction of Ear Swelling” value [1] was 43.1%, the “Ear Thickness” value [1] was 0.01577 ± 0.00155 (5) in and the “% Reduction of Ear Swelling” value (0.1 mg/animal/day) was 43.1%. For the same compound, the “Ear Thickness” value (0.1 mg/animal/day) was 0.01577 ± 0.00191 (10) in, the “% Reduction of Ear Swelling” value (1.0 mg/animal/day) was 89.0% and the “Ear Thickness” value (1.0 mg/animal/day) was 0.01128 ± 0.00291 (10) in. For the same compound, the “% Reduction of Ear Swelling” value (2.5 mg/animal/day) was 95.6%, the “Ear Thickness” value (2.5 mg/animal/day) was 0.0106 ± 0.00175 (5) in and the “Thickness Difference (Left-Right)” value (Table III, 1-day pump, 60 mg/kg/day) was -0.00074 ± 0.00119 in. For the same compound, the “Thickness Difference (Left-Right)” value (Table III, 3-day pump, 60 mg/kg/day) was -0.00115 ± 0.00058 in, the “Thickness Difference (Left-Right)” value (Table III, 7-day pump, 60 mg/kg/day) was -0.00051 ± 0.00116 in and the “Thickness Difference (Left-Right)” value (Table III, ip 60 mg/kg/injection at 24, 1 and 0.25 hr prior to AA) was 0.00226 ± 0.00124 in. For the same compound, the “Thickness Difference (Left-Right)” value (Table IV, 7-day pump, 60 mg/kg/day) was 0.00033 ± 0.00065 in, the “Thickness Difference (Left-Right)” value (Table IV, ip 60 mg/kg/injection at 1 and 0.25 hr prior to AA) was 0.00192 ± 0.00148 in and the “Thickness Difference (Left-Right)” value (Table IV, ip 60 mg/kg/injection at 3, 1 and 0.25 hr prior to AA) was 0.00141 ± 0.00138 in. The “Thickness Difference (Left-Right)” value (Table IV, ip 60 mg/kg/injection at 6, 3, 1 and 0.25 hr prior to AA) was 0.00144 ± 0.00126 in, the “Thickness Difference (Left-Right)” value (Table IV, single ip 60 mg/kg 1 hr prior to AA) was 0.00308 ± 0.00189 in and the “Thickness Difference (Left-Right)” value (Table IV, single ip 60 mg/kg 3 hr prior to AA) was 0.00116 ± 0.001 in. The “Thickness Difference (Left-Right)” value (Table V, 7-day pump, 60 mg/kg/day) was -0.00003 ± 0.0012(5) in, the “Thickness Difference (Left-Right)” value (Table V, ip injections at 6, 3, 1 and 0.25 hr prior to AA) was 0.00249 ± 0.0017(10) in and the “Thickness Difference (Left-Right)” value (Table V, ip injections at 16, 3, 1 and 0.25 hr prior to AA) was 0.00283 ± 0.00218(10) in. The “Thickness Difference (Left-Right)” value (Table VI, 7-day pump, 60 mg/kg/day) was 0.00083 ± 0.00084 in, the “Thickness Difference (Left-Right)” value (Table VI, sc 60 mg/kg/injection at 1 and 0.25 hr prior to AA) was 0.00195 ± 0.00131 in and the “Thickness Difference (Left-Right)” value (Table VI, sc 60 mg/kg/injection at 3, 1 and 0.25 hr prior to AA) was 0.00193 ± 0.0007 in. For the same compound, the “Thickness Difference (Left-Right)” value (Table VI, sc 60 mg/kg/injection at 6, 3, 1 and 0.25 hr prior to AA) was 0.00147 ± 0.00041 in, the “Thickness Difference (Left-Right)” value (Table VI, single sc 60 mg/kg 1 hr prior to AA) was 0.00174 ± 0.00128 in and the “Thickness Difference (Left-Right)” value (Table VI, single sc 60 mg/kg 3 hr prior to AA) was 0.00213 ± 0.00089 in. The “Thickness Difference (Left-Right)” value (Table VII, 3 day pump, 60 mg/kg/day) was 0.00127 ± 0.00128 in, the “Thickness Difference (Left-Right)” value (Table VII, single ip 3 hr prior to AA) was 0.00242 ± 0.00187 in and the “Thickness Difference (Left-Right)” value (Table VII, single sc 1 hr prior to AA) was 0.00214 ± 0.00122 in. For the same compound, the “Thickness Difference (Left-Right)” value (Table VII, single sc 3 hr prior to AA) was 0.00243 ± 0.00107 in, the “Thickness Difference (Left-Right)” value (Table VII, single sc 6 hr prior to AA) was 0.00117 ± 0.00066 in and the “Thickness Difference (Left-Right)” value (Table VII, single sc -.25 (hr) prior to AA) was 0.00252 ± 0.00128 in. The “Thickness Difference (Left-Right)” value (Table VIII, 3 day pump, 60 mg/kg/day) was 0.00058 ± 0.00086 in, the “Thickness Difference (Left-Right)” value (Table VIII, po 200 mg/kg/gavage at 1 and 0.25 hr prior to AA) was 0.00241 ± 0.00124 in and the “Thickness Difference (Left-Right)” value (Table VIII, po 200 mg/kg/gavage at 3, 1 and 0.25 hr prior to AA) was 0.0028 ± 0.00114 in. For the same compound, the “Thickness Difference (Left-Right)” value (Table VIII, po 200 mg/kg/gavage at 6, 3, 1 and 0.25 hr prior to AA) was 0.00134 ± 0.00257 in, the “Thickness Difference (Left-Right)” value (Table VIII, single gavage 200 mg/kg 1 hr prior to AA) was 0.00139 ± 0.00122 in and the “Thickness Difference (Left-Right)” value (Table VIII, single gavage 200 mg/kg 3 hr prior to AA) was 0.00031 ± 0.00198 in. For the same compound, the “Thickness Difference (Left-Right)” value (Table XI, 6 mg/kg/day, minipump, AA three days after implantation) was 0.00381 ± 0.00066 in, the “Thickness Difference (Left-Right)” value (Table XI, 60 mg/kg/day, minipump, AA three days after implantation) was 0.00095 ± 0.00064 in and the “Thickness Difference (Left-Right)” value (Table XIII, 24 hr via Alzet pump, 60 mg/kg/day) was 0.00132 ± 0.00086 in. For the same compound, the “Difference Treatment (Left - Right)” value (Table XIV, 24 hr via Alzet pump, 60 mg/kg/day) was 0.00134 ± 0.00044 in, the “Thickness Difference (Left-Right)” value (Table XV, 24 hr via Alzet pump, 60 mg/kg/day) was 0.00154 ± 0.00092 in and the “% Inhibition of Inflammation” value (mouse, in vivo, 6 mg/kg/day) was 40.8%. The “% Inhibition of Inflammation” value (mouse, in vivo, 60 mg/kg, 3 h) was 78.5%, the “% Inhibition of Inflammation” value (mouse, in vivo, 200 mg/kg, 1 h) was 72.3% and the “% Inhibition of Inflammation” value (mouse, in vivo, 200 mg/kg, 3 h) was 93.8%. The “% Inhibition of Inflammation” value (mouse, in vivo, ip, 60 mg/kg) was 62%, the “% Inhibition of Inflammation” value (mouse, in vivo, ip, 3 h) was 37.2% and the “inhibition of the inflammatory process” value (mouse, in vivo, po, 200 mg/kg) was 52-94%. The “% Inhibition of Inflammation” value (mouse, in vivo, sc) was 34.7%, the “% Inhibition of Inflammation” value (mouse, in vivo, sc, 60 mg/kg, 1 h) was 71.8% and the “% Inhibition of Inflammation” value (mouse, in vivo, sc, 60 mg/kg, 3 h) was 65.5%. For the same compound, the “% Inhibition of Inflammation” value (mouse, in vivo, sc, 1 h) was 44.5%, the “% Inhibition of Inflammation” value (mouse, in vivo, sc, 3 h) was 36.9% and the “% Inhibition of Inflammation” value (mouse, in vivo, sc, 6 h) was 69.6%. For the same compound, the reduction in inflammation (multiple IP injections at 6, 3, 1 and 0.25 hr or 16, 3, 1 and 0.25 hr prior to AA) was 56-61%, the duration of activity (subcutaneous injection, 60 mg/kg) was “greater than 6 hr” and the “inhibition of the inflammatory process” value (subcutaneous injection, all multi-dosing and single-dosing regimens, 60 mg/kg/injection) was “approximately 70%”.
